Earlier results, collected in US9072718B2, “Burdock fruit extract containing arctigenin and method for producing same” (Kracie Pharma, Ltd., priority 2010, dated 2015).

Tests used:
[1] = stated without a test
[2] = tested on: pancreas cancer cell line PANC-1; conditions: PANC-1, undernutrition condition; Non-patent document 1

Row | solubility in water [1] | Compound | effect on viability of tumor cells in the undernutrition condition [2]
1 | hardly soluble in water | COc1cc(C[C@H]2C(=O)OC[C@@H]2Cc2ccc(OC)c(OC)c2)ccc1O [arctigenin] | effective
2 | hardly soluble in water | COc1ccc(C[C@H]2COC(=O)[C@@H]2Cc2ccc(O[C@@H]3O[C@H](CO)[C@@H](O)[C@H](O)[C@H]3O)c(OC)c2)cc1OC [arctiin] | –
